These results are taken from US20120231140A1, “Organic Compounds” (GIVAUDAN SA, priority 2009, published 2012).

This assay can be described thus: Sensory analysis of the umami enhancing thresholds in Model Broth by a panel of trained experts. As to conditions: Model Broth (MSG, maltodextrin, sodium chloride, yeast extract in water); half-tongue test vs blank broth; geometric mean over panelists; read-out: Umami enhancement threshold concentration in "Model Broth" as calculated for the panel. In kind it is in vivo. As for the experimental part:
Sensory analysis of the umami enhancing thresholds of the compounds isolated from the ACN fraction of heated avocado pulp as described in example 1.
Water for sensory evaluation was commercially available table water (“Evian®”, Danone, Wiesbaden, Germany).
“Model Broth” contained monosodium L-glutamate monohydrate (MSG) (1.9 g), maltodextrin (6.375 g), sodium chloride (2.9 g) and yeast extract (2.1 g), in 1000 mL of water.
25 mg of each of the compounds listed hereinabove were separately dissolved in 0.2 mL ethanol, then 20.0 mL of model broth was added to each sample. Each sample was then diluted with model broth in 1:1(v/v) steps, until sets of nine solutions with dilution factors of 1, 2, 4, 8, 16, 32, 64, 128, and […] were obtained for each compound.
The samples were evaluated by a panel of trained experts.
The following sensorial evaluation procedure was followed for each set of samples containing a different compound of formula (I).
In a way that avoided any mixing, 1 mL of one of the sample solutions was applied to the left part of each panelists tongue, and 1 mL of Model Broth as a blank value/neutral reference was applied to the right part of the tongue. The panelists were asked to compare the taste on both halves of their tongues. After 5 to 30 seconds the panelists were then asked to rub their tongues against the roof of their mouths. Panelists were then asked if they could distinguish the sample from the blank (Model Broth).
After each sample, the oral cavity was rinsed with water and a break of 5 to 10 minutes was observed until the stimulus completely disappeared.
Multiple sample solutions were tested in this way, one after the other in ascending order of concentration, to determine the weakest concentration at which the compounds of formula (I) enhanced the umami taste of the model broth.
The calculation of the umami enhancement threshold was then performed as described in the literature (ASU: L 00.90-9, 1999), via the geometric mean.
By “umami enhancement threshold” is meant, the mean concentration at which a compound enhances the umami taste of a model broth.
For each panelist, the following formula was used to determine the mean umami enhancement threshold:
E=√{square root over (ce×ce−1)}
wherein ce is the concentration (in ppm) of the weakest concentration identified as having an umami enhancing effect, Ce−1 is the concentration (in ppm) of the anteceding sample solution and E is the mean umami enhancement threshold.
To calculate the mean umami enhancement threshold for the panel, the following formula was used: […]
Wherein n is the number of panelists, Ei is the product of the umami enhancement thresholds calculated for each panelist as specified above.
The panel calculated mean umami enhancement threshold for each compound is indicated in table1 below.

For `CCCCCC=CCC=CCCCCCCCC(O)CC(O)COC(C)=O` (centres unmarked) [1-acetoxy-2,4-dihydroxy-n-heneicosa-12,15-dien], the minimal effective concentration is 0.7 µg/mL.

For `CCCCCC=CCC=CCCCCCCCC(=O)CC(O)COC(C)=O` (centres unmarked) [1-acetoxy-2-hydroxy-4-oxo-n-heneicosa-12,15-dien], the minimal effective concentration is 3.2 µg/mL.

For the molecule `C#CCCCCCCCCCCCC(O)CC(O)COC(C)=O` (centres unmarked) [1-acetoxy-2,4-dihydroxy-n-heptadeca-16-yne], the minimal effective concentration is 1.5 µg/mL.

As to `CCCCCC=CCC=CCCCCCC=CC(=O)CC(O)COC(C)=O` (centres unmarked) [1-acetoxy-2-hydroxy-4-oxo-n-heneicosa-5,12,15-trien], the minimal effective concentration is 0.7 µg/mL.

`C=CCCCCCCCCCCCC(=O)CC(O)COC(C)=O` (centres unmarked) [1-acetoxy-2-hydroxy-4-keto-n-heptadeca-16-en]: the minimal effective concentration was 3.5 µg/mL.

As to `C=CCCCCCCCCCCCC(O)CC(O)COC(C)=O` (centres unmarked) [1-acetoxy-2,4-dihydroxy-n-heptadeca-16-en], the minimal effective concentration was 2.8 µg/mL.

Take `CCCCCCCCCCCCCC(=O)CC(O)COC(C)=O` (centres unmarked) [1-acetoxy-2-hydroxy-4-keto-n-heptadecane]: the minimal effective concentration was 5.6 µg/mL.

As for `CCCCCC=CCCCCCCCC(=O)CC(O)COC(C)=O` (centres unmarked) [1-acetoxy-2-hydroxy-4-keto-n-octadeca-12-en], the minimal effective concentration was 1.8 µg/mL.
